Experimental data as given in ChEMBL document CHEMBL3132769, “Fragment growing to retain or alter the selectivity of anchored kinase hinge-binding fragments” (Medchemcomm, 2014).

Key:
[1] = molecular target: Epidermal growth factor receptor (Homo sapiens) (UniProt P00533); experiment: Inhibition of human EGFR catalytic domain expressed in baculovirus assessed as substrate phosphorylation using fluorescence-labelled peptides as substrate at 70 uM after 90 mins by microfluidic peptide phosphorylation assay
Sequence of Epidermal growth factor receptor (Homo sapiens) (P00533 whole entry, the tested form may be a part): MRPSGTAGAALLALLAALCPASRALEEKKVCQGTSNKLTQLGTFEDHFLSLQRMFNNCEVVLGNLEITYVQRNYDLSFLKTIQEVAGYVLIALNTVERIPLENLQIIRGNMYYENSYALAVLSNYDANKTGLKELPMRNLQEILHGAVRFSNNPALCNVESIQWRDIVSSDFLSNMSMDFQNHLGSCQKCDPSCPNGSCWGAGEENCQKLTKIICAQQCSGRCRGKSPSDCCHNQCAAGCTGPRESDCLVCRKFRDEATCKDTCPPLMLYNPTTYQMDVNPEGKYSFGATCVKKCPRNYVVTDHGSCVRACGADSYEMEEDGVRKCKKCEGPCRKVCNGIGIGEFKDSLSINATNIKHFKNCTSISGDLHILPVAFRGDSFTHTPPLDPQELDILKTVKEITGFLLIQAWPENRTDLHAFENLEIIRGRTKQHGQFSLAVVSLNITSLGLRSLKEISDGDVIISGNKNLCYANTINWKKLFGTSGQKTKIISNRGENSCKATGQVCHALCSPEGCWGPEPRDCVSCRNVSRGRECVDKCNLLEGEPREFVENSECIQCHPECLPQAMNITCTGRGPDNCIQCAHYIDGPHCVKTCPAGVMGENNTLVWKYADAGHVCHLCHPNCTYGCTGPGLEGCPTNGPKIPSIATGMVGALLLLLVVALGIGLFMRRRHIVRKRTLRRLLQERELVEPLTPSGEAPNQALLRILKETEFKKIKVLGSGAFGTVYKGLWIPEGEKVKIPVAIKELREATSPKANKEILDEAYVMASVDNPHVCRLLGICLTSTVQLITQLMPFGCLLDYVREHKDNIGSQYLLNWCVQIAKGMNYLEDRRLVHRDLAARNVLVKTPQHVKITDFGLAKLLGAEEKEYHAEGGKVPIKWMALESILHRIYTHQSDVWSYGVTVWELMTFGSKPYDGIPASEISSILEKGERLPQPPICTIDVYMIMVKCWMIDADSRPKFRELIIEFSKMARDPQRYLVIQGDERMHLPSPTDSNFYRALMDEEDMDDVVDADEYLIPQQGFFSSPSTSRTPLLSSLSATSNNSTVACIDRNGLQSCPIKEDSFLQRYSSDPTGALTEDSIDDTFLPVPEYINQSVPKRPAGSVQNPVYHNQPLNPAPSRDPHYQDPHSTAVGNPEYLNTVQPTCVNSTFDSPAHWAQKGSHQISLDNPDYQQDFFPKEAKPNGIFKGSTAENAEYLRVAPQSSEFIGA

[2] = molecular target: Mitogen-activated protein kinase 14 (Homo sapiens) (UniProt Q16539); experiment: Inhibition of human truncated p38 alpha expressed in Escherichia coli cell assessed as substrate phosphorylation using fluorescence-labelled peptides as substrate at 0.2 uM after 90 mins by microfluidic peptide phosphorylation assay
Sequence of Mitogen-activated protein kinase 14 (Homo sapiens) (Q16539 whole entry, the tested form may be a part): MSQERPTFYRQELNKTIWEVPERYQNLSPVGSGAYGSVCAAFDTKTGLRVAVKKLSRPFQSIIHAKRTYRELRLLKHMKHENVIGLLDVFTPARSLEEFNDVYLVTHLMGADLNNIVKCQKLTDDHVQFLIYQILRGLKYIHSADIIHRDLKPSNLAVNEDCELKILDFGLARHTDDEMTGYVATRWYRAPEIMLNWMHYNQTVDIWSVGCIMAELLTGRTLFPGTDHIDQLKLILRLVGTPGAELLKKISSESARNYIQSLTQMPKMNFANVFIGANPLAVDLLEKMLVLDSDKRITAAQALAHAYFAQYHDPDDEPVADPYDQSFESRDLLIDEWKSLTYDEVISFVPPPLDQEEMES

[3] = molecular target: Mitogen-activated protein kinase kinase kinase kinase 4 (Homo sapiens) (UniProt O95819); experiment: Inhibition of human HGK catalytic domain expressed in baculovirus assessed as substrate phosphorylation using fluorescence-labelled peptides as substrate at 420 uM after 90 mins by microfluidic peptide phosphorylation assay
[4] = molecular target: T1, Interleukin-1 receptor-associated kinase 4 (Homo sapiens) (UniProt Q9NWZ3); experiment: Inhibition of human IRAK4 catalytic domain expressed in baculovirus assessed as substrate phosphorylation using fluorescence-labelled peptides as substrate at 420 uM after 90 mins by microfluidic peptide phosphorylation assay
T1 sequence (whole entry): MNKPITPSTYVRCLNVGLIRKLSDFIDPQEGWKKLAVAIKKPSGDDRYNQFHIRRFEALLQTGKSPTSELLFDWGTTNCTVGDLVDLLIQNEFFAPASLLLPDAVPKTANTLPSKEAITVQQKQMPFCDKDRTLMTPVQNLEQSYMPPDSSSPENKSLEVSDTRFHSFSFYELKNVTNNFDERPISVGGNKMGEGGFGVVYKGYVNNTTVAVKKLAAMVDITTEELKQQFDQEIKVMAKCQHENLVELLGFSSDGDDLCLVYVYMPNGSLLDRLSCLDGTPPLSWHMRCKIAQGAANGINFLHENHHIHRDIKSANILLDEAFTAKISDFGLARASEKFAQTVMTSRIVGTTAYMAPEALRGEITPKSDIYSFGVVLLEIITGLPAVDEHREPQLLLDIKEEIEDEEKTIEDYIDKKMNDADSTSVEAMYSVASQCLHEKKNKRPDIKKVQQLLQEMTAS

[5] = molecular target: Dual specificity tyrosine-phosphorylation-regulated kinase 1A (Rattus norvegicus) (UniProt Q63470); experiment: Inhibition of rat full length DYRK1a expressed in Escherichia coli cell assessed as substrate phosphorylation using fluorescence-labelled peptides as substrate at 420 uM after 90 mins by microfluidic peptide phosphorylation assay
[6] = molecular target: Serine/threonine-protein kinase Chk2 (Homo sapiens) (UniProt O96017); experiment: Inhibition of human full length CHK2 expressed in baculovirus assessed as substrate phosphorylation using fluorescence-labelled peptides as substrate at 95 uM after 90 mins by microfluidic peptide phosphorylation assay
Sequence of Serine/threonine-protein kinase Chk2 (Homo sapiens) (O96017 whole entry): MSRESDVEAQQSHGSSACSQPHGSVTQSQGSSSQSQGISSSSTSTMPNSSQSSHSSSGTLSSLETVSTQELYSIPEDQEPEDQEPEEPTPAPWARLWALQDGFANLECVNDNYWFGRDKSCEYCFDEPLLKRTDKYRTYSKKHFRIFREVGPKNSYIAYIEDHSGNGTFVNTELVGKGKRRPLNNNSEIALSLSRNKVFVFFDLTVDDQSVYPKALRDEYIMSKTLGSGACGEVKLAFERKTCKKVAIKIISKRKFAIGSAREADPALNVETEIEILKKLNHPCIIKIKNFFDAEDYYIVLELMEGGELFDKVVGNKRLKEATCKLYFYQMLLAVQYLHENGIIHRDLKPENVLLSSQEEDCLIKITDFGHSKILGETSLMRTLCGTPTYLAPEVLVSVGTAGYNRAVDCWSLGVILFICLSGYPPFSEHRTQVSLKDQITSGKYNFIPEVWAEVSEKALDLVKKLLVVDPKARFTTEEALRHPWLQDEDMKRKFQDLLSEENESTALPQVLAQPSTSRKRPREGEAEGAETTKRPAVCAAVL

[7] = molecular target: T2, Cytoplasmic tyrosine-protein kinase BMX (Homo sapiens) (UniProt P51813); experiment: Inhibition of human full length BMX expressed in baculovirus assessed as substrate phosphorylation using fluorescence-labelled peptides as substrate at 9 uM after 90 mins by microfluidic peptide phosphorylation assay
T2 sequence (whole entry): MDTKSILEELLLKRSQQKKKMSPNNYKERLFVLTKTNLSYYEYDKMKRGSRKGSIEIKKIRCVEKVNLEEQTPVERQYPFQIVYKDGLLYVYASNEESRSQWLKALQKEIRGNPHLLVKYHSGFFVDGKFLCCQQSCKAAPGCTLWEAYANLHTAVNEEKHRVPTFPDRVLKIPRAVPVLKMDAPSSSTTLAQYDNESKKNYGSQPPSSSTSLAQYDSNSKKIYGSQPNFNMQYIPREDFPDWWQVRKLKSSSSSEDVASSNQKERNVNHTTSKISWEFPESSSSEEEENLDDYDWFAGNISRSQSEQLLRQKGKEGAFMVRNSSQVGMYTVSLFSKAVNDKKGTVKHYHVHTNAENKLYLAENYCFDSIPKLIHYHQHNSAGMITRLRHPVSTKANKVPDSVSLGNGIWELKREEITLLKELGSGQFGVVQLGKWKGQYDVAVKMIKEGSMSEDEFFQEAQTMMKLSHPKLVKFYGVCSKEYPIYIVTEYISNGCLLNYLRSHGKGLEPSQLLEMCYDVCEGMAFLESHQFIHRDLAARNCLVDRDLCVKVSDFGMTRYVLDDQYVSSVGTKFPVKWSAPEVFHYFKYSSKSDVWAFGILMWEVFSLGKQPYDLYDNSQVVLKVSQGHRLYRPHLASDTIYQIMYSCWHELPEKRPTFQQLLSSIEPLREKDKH

[8] = molecular target: Serine/threonine-protein kinase MARK2 (Homo sapiens) (UniProt Q7KZI7); experiment: Inhibition of human full length MARK2 expressed in baculovirus assessed as substrate phosphorylation using fluorescence-labelled peptides as substrate at 1000 uM after 90 mins by microfluidic peptide phosphorylation assay
Sequence of Serine/threonine-protein kinase MARK2 (Homo sapiens) (Q7KZI7 whole entry): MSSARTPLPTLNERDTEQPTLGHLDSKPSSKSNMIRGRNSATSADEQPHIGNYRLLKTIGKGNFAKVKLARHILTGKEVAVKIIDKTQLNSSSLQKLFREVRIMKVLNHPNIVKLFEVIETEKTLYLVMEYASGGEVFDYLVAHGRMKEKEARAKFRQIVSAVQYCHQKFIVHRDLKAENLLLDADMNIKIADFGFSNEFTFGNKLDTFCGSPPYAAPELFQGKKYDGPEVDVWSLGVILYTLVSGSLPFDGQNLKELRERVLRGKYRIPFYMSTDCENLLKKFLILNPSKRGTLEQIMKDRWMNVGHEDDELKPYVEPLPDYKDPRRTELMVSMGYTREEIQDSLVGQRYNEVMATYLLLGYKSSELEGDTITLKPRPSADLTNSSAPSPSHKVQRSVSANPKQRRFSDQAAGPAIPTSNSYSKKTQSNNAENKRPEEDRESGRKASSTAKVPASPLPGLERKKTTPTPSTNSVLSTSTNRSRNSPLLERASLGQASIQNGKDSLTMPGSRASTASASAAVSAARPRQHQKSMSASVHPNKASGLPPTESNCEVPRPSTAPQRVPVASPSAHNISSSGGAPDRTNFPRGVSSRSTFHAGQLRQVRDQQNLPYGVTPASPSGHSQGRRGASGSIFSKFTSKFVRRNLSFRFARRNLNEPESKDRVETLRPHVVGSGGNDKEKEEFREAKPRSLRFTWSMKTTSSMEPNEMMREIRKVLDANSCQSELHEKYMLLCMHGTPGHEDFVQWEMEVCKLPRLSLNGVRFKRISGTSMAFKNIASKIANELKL

[9] = molecular target: T3, Protein kinase C zeta type (Homo sapiens) (UniProt Q05513); experiment: Inhibition of human full length PKC zeta expressed in baculovirus assessed as substrate phosphorylation using fluorescence-labelled peptides as substrate at 2 uM after 90 mins by microfluidic peptide phosphorylation assay
T3 sequence (whole entry): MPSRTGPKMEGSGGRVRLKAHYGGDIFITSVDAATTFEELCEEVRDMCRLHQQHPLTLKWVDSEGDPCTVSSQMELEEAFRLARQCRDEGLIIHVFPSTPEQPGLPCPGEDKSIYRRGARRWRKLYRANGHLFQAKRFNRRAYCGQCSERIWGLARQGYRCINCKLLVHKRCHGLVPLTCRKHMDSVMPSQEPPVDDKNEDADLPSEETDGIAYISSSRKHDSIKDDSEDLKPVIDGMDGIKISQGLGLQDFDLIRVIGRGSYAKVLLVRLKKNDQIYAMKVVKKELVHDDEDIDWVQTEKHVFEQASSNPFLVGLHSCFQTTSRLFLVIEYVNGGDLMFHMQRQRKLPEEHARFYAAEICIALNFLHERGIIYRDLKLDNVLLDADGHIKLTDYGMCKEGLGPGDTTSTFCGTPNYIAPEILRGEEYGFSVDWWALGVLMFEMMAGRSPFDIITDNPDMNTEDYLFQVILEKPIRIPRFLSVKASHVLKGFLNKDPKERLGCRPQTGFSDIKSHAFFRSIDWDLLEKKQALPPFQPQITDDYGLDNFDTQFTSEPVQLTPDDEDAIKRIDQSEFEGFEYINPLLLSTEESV

[10] = molecular target: Protein kinase C delta type (Homo sapiens) (UniProt Q05655); experiment: Inhibition of human truncated PKC delta expressed in baculovirus assessed as substrate phosphorylation using fluorescence-labelled peptides as substrate at 8 uM after 90 mins by microfluidic peptide phosphorylation assay
Sequence of Protein kinase C delta type (Homo sapiens) (Q05655 whole entry, looked up, the tested form may be a part): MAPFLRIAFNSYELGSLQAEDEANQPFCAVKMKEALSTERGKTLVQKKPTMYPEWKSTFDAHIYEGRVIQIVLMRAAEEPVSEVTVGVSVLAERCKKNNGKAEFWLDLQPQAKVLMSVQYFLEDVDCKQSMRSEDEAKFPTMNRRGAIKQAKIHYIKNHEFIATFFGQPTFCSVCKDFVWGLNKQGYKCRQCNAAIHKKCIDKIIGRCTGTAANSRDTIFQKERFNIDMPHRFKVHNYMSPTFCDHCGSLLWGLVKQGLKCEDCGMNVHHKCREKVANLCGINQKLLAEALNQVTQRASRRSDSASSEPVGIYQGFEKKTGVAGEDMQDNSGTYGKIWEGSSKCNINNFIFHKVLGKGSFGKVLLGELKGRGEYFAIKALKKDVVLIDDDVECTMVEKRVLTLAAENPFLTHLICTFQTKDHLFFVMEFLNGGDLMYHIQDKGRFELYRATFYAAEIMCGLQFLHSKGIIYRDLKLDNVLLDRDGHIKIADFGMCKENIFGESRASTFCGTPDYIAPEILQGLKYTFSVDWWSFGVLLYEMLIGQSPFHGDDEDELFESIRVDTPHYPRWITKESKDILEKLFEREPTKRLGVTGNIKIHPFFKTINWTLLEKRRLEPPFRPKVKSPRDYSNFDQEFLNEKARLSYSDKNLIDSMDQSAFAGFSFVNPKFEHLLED

[11] = molecular target: Vascular endothelial growth factor receptor 2 (Homo sapiens) (UniProt P35968); experiment: Inhibition of human KDR cytoplasmic domain expressed in baculovirus assessed as substrate phosphorylation using fluorescence-labelled peptides as substrate at 8 uM after 90 mins by microfluidic peptide phosphorylation assay
Sequence of Vascular endothelial growth factor receptor 2 (Homo sapiens) (P35968 whole entry, the tested form may be a part): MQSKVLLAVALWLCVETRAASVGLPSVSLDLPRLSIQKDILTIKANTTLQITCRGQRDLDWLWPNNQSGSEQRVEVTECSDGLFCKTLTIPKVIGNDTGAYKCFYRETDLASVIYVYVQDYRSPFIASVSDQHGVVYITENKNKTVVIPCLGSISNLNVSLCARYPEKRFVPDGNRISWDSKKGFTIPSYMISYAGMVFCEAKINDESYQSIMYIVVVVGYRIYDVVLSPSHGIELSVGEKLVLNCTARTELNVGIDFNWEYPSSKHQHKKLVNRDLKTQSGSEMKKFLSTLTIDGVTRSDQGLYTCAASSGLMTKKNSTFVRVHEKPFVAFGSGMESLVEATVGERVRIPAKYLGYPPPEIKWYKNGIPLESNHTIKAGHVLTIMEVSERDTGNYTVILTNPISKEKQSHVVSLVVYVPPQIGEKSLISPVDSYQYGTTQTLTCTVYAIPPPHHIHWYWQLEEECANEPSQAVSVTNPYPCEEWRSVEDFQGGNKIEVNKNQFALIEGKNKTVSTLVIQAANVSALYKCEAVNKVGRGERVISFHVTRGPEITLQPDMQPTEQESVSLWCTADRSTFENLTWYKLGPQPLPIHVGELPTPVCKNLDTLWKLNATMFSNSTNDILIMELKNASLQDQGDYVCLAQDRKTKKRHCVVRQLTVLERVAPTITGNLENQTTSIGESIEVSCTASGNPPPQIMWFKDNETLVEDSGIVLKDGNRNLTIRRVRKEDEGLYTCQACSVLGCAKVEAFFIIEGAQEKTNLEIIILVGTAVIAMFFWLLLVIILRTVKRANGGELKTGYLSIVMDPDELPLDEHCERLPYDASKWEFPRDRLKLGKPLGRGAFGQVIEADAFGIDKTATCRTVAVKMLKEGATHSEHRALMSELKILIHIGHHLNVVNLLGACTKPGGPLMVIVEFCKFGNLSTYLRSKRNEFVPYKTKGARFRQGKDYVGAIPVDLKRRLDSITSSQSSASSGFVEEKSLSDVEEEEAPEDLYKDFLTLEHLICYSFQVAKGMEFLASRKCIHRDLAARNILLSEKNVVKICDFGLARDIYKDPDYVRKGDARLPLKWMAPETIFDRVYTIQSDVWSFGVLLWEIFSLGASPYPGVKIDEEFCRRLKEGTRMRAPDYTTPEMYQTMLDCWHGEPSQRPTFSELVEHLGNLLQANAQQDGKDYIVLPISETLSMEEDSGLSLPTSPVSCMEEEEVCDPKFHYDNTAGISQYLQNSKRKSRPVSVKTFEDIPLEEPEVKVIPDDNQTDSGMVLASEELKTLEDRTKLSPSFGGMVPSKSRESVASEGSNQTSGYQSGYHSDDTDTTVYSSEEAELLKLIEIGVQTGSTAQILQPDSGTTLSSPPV

[12] = molecular target: T2, Cytoplasmic tyrosine-protein kinase BMX (Homo sapiens); experiment: Inhibition of human full length BMX expressed in baculovirus assessed as substrate phosphorylation using fluorescence-labelled peptides as substrate at 0.1 uM after 90 mins by microfluidic peptide phosphorylation assay
[13] = molecular target: Mitogen-activated protein kinase 14 (Homo sapiens) (UniProt Q16539); experiment: Inhibition of human truncated p38 alpha expressed in Escherichia coli cell assessed as substrate phosphorylation using fluorescence-labelled peptides as substrate at 0.1 uM after 90 mins by microfluidic peptide phosphorylation assay

CNCc1ccc(-c2ncnc3[nH]cnc23)cc1
inhibition [1]: 16.5%

Clc1ccc(C2(c3ccc(-c4ncnc5[nH]cnc45)cc3)CCNCC2)cc1
inhibition [2]: 5%

c1nc(N2CCOCC2)c2nc[nH]c2n1
inhibition [3]: 78.5%
inhibition [4]: 74.5%
inhibition [5]: 77%

NCCc1ccc(-c2ncnc3[nH]cnc23)cc1
inhibition [6]: 74%

NCC1CN(c2ncnc3[nH]c4cnccc4c23)CCO1 (stereo not drawn)
inhibition [7]: 11%

c1cnc2[nH]ccc2c1
inhibition [8]: 75%

NC1CCN(c2ncnc3[nH]ccc23)CC1
inhibition [9]: 20.5%

NCC1CCN(c2ncnc3[nH]ccc23)CC1
inhibition [10]: 67%
inhibition [11]: 50%

C[C@H](CN(C)C)Oc1nc(Nc2cc3cccc(Cl)c3cn2)cnc1C#N
inhibition [12]: 3%
inhibition [13]: 1%
